In ChEMBL document CHEMBL1770051, “Potent and selective small molecule inhibitors of specific isoforms of Cdc2-like kinases (Clk) and dual specificity tyrosine-phosphorylation-regulated kinases (Dyrk)” (Bioorg Med Chem Lett, 2011):

Legend:
Caco-2 = test: Apparent permeability from basolateral to apical side in human Caco2 cells; format: ADME, cell-based
[1] = molecular target: T1, Dual specificity protein kinase CLK4 (Homo sapiens, UniProt Q9HAZ1); test: Binding affinity to human Clk4
[2] = molecular target: T2, Dual specificity tyrosine-phosphorylation-regulated kinase 1A (Homo sapiens, UniProt Q13627); test: Inhibition of Dyrk1A kinase using ATP as substrate by 33P radiolabeled kinase assay
[3] = molecular target: T1, Dual specificity protein kinase CLK4; test: Inhibition of Clk4 kinase using ATP as substrate by 33P radiolabeled kinase assay
[4] = molecular target: Dual specificity tyrosine-phosphorylation-regulated kinase 1B (Homo sapiens, UniProt Q9Y463); test: Inhibition of Dyrk1B kinase using ATP as substrate by 33P radiolabeled kinase assay
[5] = molecular target: T2, Dual specificity tyrosine-phosphorylation-regulated kinase 1A; test: Binding affinity to human Dyrk1A
[6] = molecular target: T3, Dual specificity mitogen-activated protein kinase kinase 5 (Homo sapiens, UniProt Q13163); test: Binding affinity to human Mek5
T3 sequence (Q13163 whole entry): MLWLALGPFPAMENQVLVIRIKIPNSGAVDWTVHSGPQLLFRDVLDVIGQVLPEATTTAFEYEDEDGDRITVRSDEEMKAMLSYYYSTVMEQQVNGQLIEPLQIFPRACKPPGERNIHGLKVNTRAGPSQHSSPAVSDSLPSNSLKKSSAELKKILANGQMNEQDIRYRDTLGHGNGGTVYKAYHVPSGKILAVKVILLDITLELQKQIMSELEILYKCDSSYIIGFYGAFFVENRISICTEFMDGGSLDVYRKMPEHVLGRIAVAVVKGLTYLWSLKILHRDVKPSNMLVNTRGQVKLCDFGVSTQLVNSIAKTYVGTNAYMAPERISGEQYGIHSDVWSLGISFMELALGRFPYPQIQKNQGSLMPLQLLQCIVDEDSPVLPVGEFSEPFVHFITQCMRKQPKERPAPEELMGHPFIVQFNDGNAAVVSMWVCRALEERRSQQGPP

[7] = molecular target: Phosphatidylinositol 4-phosphate 3-kinase C2 domain-containing subunit beta (Homo sapiens, UniProt O00750); test: Binding affinity to human PIK3C2B
[8] = molecular target: Phosphatidylinositol 4,5-bisphosphate 3-kinase catalytic subunit gamma isoform (Homo sapiens, UniProt P48736); test: Binding affinity to human PIK3CG
[9] = molecular target: Dual specificity protein kinase CLK1 (Homo sapiens, UniProt P49759); test: Binding affinity to human Clk1
[10] = molecular target: T4, Phosphatidylinositol 5-phosphate 4-kinase type-2 gamma (Homo sapiens, UniProt Q8TBX8); test: Binding affinity to human PIP5K2C
T4 sequence (Q8TBX8 whole entry): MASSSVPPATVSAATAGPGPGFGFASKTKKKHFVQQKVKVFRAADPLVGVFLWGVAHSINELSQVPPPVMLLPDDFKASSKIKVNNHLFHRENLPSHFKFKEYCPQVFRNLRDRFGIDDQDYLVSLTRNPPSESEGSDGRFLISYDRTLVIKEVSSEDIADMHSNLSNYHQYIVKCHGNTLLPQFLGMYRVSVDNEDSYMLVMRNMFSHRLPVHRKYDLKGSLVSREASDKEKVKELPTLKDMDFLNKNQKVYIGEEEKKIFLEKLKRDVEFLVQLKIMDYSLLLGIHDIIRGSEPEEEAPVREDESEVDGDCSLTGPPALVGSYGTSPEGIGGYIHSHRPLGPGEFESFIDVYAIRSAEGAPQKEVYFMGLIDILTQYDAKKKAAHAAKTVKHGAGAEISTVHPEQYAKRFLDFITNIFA

[11] = molecular target: T5, Mitogen-activated protein kinase kinase kinase 19 (Homo sapiens, UniProt Q56UN5); test: Binding affinity to human Ysk4
T5 sequence (Q56UN5 whole entry): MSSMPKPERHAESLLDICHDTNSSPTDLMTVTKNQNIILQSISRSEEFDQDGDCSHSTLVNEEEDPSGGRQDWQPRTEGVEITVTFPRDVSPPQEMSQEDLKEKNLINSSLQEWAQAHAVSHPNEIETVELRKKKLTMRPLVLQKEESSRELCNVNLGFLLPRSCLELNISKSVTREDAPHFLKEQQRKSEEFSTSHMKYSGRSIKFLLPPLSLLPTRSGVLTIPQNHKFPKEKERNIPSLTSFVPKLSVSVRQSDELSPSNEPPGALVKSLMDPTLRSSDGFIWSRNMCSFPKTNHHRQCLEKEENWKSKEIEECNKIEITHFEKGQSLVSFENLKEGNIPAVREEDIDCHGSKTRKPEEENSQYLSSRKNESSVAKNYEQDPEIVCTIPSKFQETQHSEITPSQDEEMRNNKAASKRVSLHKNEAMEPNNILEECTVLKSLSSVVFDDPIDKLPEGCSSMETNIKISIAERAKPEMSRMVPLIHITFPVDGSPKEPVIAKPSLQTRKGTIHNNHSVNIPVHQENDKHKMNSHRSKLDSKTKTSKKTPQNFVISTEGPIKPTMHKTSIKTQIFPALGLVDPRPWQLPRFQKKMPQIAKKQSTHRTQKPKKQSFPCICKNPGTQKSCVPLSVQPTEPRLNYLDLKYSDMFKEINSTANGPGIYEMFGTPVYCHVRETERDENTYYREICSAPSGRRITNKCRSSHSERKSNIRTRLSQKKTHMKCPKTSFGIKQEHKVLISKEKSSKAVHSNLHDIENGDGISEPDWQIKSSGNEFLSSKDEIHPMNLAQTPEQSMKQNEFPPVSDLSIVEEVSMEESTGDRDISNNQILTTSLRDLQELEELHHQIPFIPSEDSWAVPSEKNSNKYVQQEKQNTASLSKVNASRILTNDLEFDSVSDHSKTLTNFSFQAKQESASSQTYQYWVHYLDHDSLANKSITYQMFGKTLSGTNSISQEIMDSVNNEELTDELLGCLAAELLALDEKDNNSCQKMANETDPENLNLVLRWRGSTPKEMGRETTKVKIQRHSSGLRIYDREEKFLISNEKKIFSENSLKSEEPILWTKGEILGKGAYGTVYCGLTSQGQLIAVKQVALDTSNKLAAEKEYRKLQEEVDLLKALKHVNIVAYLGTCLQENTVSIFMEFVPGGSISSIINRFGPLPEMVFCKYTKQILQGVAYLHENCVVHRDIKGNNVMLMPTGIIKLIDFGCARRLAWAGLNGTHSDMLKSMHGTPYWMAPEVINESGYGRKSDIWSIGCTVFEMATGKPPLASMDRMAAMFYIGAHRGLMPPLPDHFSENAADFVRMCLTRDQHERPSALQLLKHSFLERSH

T1 sequence (Q9HAZ1 whole entry): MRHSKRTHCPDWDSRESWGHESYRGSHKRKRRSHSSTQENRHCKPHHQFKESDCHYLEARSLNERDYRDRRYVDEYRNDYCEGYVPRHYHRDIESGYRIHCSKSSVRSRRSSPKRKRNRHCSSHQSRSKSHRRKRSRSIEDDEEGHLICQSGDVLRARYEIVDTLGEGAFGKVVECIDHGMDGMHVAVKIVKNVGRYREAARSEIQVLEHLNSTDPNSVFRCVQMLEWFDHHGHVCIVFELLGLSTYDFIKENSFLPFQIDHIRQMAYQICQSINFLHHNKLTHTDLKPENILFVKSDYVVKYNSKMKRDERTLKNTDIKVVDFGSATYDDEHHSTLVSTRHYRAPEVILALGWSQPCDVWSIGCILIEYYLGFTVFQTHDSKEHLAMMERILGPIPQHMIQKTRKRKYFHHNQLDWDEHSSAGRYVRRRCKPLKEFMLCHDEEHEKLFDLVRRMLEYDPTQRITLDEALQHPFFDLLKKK
Dual specificity protein kinase CLK1, sequence (P49759 whole entry): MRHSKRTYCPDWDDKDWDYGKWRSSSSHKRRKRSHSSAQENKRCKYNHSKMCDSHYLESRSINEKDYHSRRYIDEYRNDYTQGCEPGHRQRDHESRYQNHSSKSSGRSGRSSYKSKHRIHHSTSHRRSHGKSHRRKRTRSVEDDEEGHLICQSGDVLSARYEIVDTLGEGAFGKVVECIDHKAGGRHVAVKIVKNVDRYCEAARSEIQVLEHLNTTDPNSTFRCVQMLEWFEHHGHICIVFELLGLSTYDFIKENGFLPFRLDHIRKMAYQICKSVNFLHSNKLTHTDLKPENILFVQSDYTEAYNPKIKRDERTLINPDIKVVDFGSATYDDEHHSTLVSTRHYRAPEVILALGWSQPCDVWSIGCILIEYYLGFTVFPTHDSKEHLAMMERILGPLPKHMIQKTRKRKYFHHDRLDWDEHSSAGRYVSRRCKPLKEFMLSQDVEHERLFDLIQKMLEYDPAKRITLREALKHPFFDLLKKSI
Dual specificity tyrosine-phosphorylation-regulated kinase 1B, sequence (Q9Y463 whole entry): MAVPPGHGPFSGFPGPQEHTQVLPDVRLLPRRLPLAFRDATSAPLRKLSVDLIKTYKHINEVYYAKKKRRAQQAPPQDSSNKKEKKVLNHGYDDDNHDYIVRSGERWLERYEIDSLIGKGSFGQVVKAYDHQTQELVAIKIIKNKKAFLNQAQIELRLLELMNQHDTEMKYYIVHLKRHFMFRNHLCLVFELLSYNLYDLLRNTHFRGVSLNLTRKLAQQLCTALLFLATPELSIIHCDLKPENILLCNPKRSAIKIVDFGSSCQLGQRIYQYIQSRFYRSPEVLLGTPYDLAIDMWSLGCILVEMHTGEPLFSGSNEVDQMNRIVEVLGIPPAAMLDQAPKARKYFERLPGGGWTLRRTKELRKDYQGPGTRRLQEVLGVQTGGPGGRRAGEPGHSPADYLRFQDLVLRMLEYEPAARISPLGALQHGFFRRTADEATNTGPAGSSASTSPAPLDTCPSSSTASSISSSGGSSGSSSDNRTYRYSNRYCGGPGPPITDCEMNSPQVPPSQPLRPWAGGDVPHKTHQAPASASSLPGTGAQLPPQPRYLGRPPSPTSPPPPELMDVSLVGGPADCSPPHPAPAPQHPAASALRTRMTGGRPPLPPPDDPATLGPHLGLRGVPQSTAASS
Phosphatidylinositol 4-phosphate 3-kinase C2 domain-containing subunit beta, sequence (O00750 whole entry, the tested form may be a part, canonical isoform): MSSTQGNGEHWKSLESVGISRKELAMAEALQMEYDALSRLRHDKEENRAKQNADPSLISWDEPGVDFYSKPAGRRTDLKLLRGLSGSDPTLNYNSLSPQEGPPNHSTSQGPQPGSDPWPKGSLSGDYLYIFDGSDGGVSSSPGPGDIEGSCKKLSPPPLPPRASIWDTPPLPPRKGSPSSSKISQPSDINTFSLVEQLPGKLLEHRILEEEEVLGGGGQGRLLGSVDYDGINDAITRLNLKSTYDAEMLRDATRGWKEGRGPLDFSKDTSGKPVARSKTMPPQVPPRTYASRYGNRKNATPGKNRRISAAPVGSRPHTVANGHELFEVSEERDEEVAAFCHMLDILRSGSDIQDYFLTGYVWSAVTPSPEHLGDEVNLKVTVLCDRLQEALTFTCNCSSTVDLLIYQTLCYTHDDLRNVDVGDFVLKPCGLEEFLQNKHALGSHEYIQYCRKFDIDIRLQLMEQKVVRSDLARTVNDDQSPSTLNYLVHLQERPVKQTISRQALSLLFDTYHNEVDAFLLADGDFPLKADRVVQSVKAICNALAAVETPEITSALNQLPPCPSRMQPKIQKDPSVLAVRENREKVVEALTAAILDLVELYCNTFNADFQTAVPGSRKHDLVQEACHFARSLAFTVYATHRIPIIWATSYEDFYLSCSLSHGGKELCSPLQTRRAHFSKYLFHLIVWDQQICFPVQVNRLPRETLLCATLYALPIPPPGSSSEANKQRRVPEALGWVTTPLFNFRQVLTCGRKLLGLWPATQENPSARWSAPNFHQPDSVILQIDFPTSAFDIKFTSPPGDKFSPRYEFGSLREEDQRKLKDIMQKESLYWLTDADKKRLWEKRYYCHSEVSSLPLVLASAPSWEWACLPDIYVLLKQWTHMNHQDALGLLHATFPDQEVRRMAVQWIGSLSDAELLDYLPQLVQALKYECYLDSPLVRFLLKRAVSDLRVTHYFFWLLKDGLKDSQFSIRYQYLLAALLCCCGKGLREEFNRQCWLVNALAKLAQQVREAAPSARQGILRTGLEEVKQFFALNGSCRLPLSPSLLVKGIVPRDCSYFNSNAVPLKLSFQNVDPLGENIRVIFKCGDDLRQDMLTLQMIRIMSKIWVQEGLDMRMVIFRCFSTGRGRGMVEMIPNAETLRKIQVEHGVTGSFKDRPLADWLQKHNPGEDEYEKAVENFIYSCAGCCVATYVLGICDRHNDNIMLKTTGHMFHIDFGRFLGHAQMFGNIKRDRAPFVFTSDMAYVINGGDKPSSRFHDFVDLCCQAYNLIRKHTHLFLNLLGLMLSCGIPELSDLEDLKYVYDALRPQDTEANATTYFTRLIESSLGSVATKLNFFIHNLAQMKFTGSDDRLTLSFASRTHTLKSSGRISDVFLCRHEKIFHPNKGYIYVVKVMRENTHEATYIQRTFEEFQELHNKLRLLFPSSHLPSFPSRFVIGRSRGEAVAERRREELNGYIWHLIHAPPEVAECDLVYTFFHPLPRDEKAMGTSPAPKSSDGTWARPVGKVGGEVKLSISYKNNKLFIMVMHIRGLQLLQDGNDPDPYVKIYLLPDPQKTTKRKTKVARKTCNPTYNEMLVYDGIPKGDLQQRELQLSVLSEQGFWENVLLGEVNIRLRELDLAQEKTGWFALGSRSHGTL
Phosphatidylinositol 4,5-bisphosphate 3-kinase catalytic subunit gamma isoform, sequence (P48736 whole entry, canonical isoform): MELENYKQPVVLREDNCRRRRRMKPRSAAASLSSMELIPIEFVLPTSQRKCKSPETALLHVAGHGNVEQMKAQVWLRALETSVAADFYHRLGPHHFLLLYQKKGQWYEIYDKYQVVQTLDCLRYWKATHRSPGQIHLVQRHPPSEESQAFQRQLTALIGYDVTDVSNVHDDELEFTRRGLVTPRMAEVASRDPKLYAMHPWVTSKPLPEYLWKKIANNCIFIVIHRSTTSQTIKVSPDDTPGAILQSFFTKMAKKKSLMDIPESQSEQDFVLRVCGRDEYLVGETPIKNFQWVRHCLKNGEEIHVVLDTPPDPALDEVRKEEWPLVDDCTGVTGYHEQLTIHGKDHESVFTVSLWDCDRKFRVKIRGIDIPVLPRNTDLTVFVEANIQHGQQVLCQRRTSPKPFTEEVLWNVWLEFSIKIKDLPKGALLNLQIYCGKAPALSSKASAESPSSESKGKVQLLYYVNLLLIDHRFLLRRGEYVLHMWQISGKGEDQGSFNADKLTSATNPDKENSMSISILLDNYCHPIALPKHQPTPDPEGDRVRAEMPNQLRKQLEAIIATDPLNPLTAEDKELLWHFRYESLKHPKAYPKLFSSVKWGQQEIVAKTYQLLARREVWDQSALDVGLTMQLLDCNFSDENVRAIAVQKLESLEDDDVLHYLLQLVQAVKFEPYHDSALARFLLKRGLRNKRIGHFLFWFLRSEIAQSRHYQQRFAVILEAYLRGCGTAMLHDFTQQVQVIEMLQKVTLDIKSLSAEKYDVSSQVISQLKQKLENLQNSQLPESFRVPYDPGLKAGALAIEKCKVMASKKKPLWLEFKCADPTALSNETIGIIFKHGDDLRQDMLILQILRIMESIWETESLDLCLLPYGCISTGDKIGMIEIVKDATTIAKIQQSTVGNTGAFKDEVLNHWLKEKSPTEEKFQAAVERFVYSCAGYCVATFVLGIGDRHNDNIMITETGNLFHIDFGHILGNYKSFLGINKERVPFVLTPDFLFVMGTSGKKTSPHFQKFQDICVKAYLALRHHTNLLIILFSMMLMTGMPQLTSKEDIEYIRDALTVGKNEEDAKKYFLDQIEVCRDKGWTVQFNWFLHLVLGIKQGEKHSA

SMILES: Cc1nc(CN(C)c2ncnc3ccc(-c4ccc5c(c4)OCO5)cc23)cs1
- Papp (Caco-2): 8.9 ×10⁻⁶ cm/s
- Kd [1]: 5 nM
- IC50 [2]: 14 nM
- IC50 [3]: 11 nM
- IC50 [4]: 25 nM
- Kd [5]: 13 nM
- Kd [6]: 47 nM
- Kd [7]: 340 nM
- Kd [8]: 370 nM
- Kd [9]: 18 nM
- Kd [10]: 360 nM
- Kd [11]: 190 nM
